Experimental data from US20080138437A1, “Antitumor Agent” (priority 2004, published 2008).
Counter-ions that a name gives are not always drawn. Like-named read-outs stand apart in the source and are kept apart here.

What was measured:
in vivo = settings: male, C57BL/6, mouse
A549 lung cancer cells = experiment: Antitumor test, transplanted tumor in nude mice; format: in vivo, human; settings: control, drug without hydroxyapatite adsorption
Description: (§1) (Experimental Test 5-1 to 5-5).
(§2) Female nude mice (7 weeks old, 16 to 22 g) with a BALB/c genetic background were used for the tests. Human cancer cells used for the tests were GCIY stomach cancer cells, HCT-15 colon cancer cells, A549 lung cancer cells, and OVCAR-3 ovarian cancer cells. Human cancer cells were subcutaneously transplanted into nude mice, tumor lumps were formed, and these carcinomas were used for the tests.
(§3) Aseptically collected tumors were sliced into tumors of 3×3×3 mm, and then subcutaneously transplanted into a new nude mouse. When the tumors reached a volume of 100 to 300 mm^3, the animals were arbitrarily divided into groups of six (Day 0). […] Intravascular administration was the administration route for all.
(§4) After administration, between Days 24 to 31, the length (L) and width (W) of the tumor lump of the animal were measured twice a week, and the tumor volume (TV) was calculated according to the following formula: TV=(L×W^2)/2. Antitumor effect was determined at Day 14. The relative tumor volume (RTV) was obtained by the following formula: RTV=TV14/TV0, using values of the tumor volume at Day 0 and Day 14 (referred to as TV0 and TV14). Antitumor effect was evaluated as the tumor regression rate at Day 14 (T/C%). Herein, T/C %=100×(average RTV of the treated group)/(RTV of the control group).
(§5) As a control, each drug was tested without hydroxyapatite adsorption (Comparative Tests 5-10 to 5-14).

[1] = system: GCIY stomach cancer cells; experiment: Antitumor test, transplanted tumor in nude mice; format: in vivo, human; settings: control, drug without hydroxyapatite adsorption
Description: as §1, §2, §3, §4, §5

[2] = system: HCT-15 colon cancer cells; experiment: Antitumor test, transplanted tumor in nude mice; format: in vivo, human; settings: control, drug without hydroxyapatite adsorption
Description: as §1, §2, §3, §4, §5

[3] = system: OVCAR-3 ovarian cancer cells; experiment: Antitumor test, transplanted tumor in nude mice; format: in vivo, human; settings: control, drug without hydroxyapatite adsorption
Description: as §1, §2, §3, §4, §5

[4] = system: 15 types of human cancer cells; experiment: Cell growth inhibition test, MTT, average GI 50; format: cell-based; settings: average of 15 human cancer cell types, 48 hours exposure
Procedure: Appropriate amounts of each of the human cancer cells suspended in 5% fetal bovine serum-supplemented medium were plated into a 96-well plate, and allowed to adhere to the wells in a 37° C. CO2 incubator overnight.
These cancer cells were exposed to each anticancer agent for 48 hours. Cell growth was assayed by MTT. Absorbance of the control well (C) and the test well (T) was measured at 550 nm.
The absorbance of the test well immediately after adding the drug (TO) was also measured. Using these measured values, GI 50 of each drug was calculated, and the drug concentration at that time was obtained. For comparison, a similar test was performed for each of the anticancer agents (Comparative Tests 4-1 to 4-7).

C57BL/6 male mouse = settings: for deaths versus administered animals: one-time
[5] = intravascular, one-time administration, 14 days observation
[6] = 400 mg/kg oral, antitumor agent alone, 14 days observation
[7] = 600 mg/kg oral, antitumor agent alone, 14 days observation
[8] = 800 mg/kg oral, antitumor agent alone, 14 days observation
[9] = 1000 mg/kg oral, antitumor agent alone, 14 days observation
[10] = 10 mg/kg intravascular, 14 days observation
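Throughout, for LD50: mice given a single dose and followed for 14 days, with deaths tallied, LD50 derived from the doses given and the resulting death counts.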
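Throughout, for deaths versus administered animals: mice given a single dose and followed for 14 days, with deaths tallied, LD50 derived from the doses given and the resulting death counts.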

COC(COC(N)=O)C1=C(N2CC2)C(=O)C(C)=C(N2CC2)C1=O (centres unmarked) [Carboquone]
LD50 (in vivo): 5.8 mg/kg

C[C@]12CC[C@@H]3c4ccc(OC(=O)N(CCCl)CCCl)cc4CC[C@H]3[C@@H]1CC[C@@H]2OP(=O)(O)O [Estramustine sodium phosphate]
LD50 (in vivo; po): 380 mg/kg

Sc1ncnc2nc[nH]c12 [Mercaptopurine]
LD50 (in vivo; po): 1090 mg/kg

O=P1(N(CCCl)CCCl)NCCCO1 (centres unmarked) [Cyclophosphamide]
Regression rate of transplanted cancer (T/C %) at Day 14 (A549 lung cancer cells): 86% | Regression rate of transplanted cancer (T/C %) at Day 14 [1]: 78% | Regression rate of transplanted cancer (T/C %) at Day 14 [2]: 52% | Regression rate of transplanted cancer (T/C %) at Day 14 [3]: 71% | LD50 (in vivo): 140 mg/kg

CCC1=C[C@@H]2CN(C1)Cc1c([nH]c3ccccc13)[C@@](C(=O)OC)(c1cc3c(cc1OC)N(C)[C@H]1[C@@](O)(C(=O)OC)[C@H](OC(C)=O)[C@]4(CC)C=CCN5CC[C@]31[C@@H]54)C2 [Vinorelbine tartrate]
LD50 (in vivo): 2.3 mg/kg

CC[C@]1(O)C[C@@H]2CN(CCc3c([nH]c4ccccc34)[C@@](C(=O)OC)(c3cc4c(cc3OC)N(C)[C@H]3[C@@](O)(C(=O)OC)[C@H](OC(C)=O)[C@]5(CC)C=CCN6CC[C@]43[C@@H]65)C2)C1 [Vinblastine sulfate]
LD50 (in vivo): 5.6 mg/kg | LD50 (in vivo; po): 427 mg/kg

CC1=C(/C=C/C(C)=C/C=C/C(C)=C/C(=O)O)C(C)(C)CCC1 [Tretinoin]
LD50 (in vivo; po): 549 mg/kg

N.N.O=C([O-])C1(C(=O)[O-])CCC1.[Pt+2] [Carboplatin]
GI50 [4]: 75.7 µM | deaths versus administered animals (C57BL/6 male mouse; 70 mg/kg intravascular, 14 days observation): 0/6 | deaths versus administered animals (C57BL/6 male mouse; 80 mg/kg intravascular, 14 days observation): 1/7 | deaths versus administered animals (C57BL/6 male mouse; 90 mg/kg intravascular, 14 days observation): 3/6 | deaths versus administered animals (C57BL/6 male mouse; 100 mg/kg intravascular, 14 days observation): 5/8 | deaths versus administered animals (C57BL/6 male mouse; 110 mg/kg intravascular, 14 days observation): 7/8 | deaths versus administered animals (C57BL/6 male mouse; 120 mg/kg intravascular, 14 days observation): 7/7 | LD50 (C57BL/6 male mouse; [5]): 93.0 mg/kg | LD50 (C57BL/6 male mouse; oral, antitumor agent alone (comparison), one-time administration, 14 days observation): 350 mg/kg

CCCCCCCCCCCCCCCCCCOP(=O)([O-])OC[C@H]1O[C@@H](n2ccc(N)nc2=O)[C@@H](O)[C@@H]1O.[Na+] [Cytarabine ocfosfate]
deaths versus administered animals (C57BL/6 male mouse; 250 mg/kg oral, antitumor agent alone, 14 days observation): 0/5 | deaths versus administered animals (C57BL/6 male mouse; 300 mg/kg oral, antitumor agent alone, 14 days observation): 1/5 | deaths versus administered animals (C57BL/6 male mouse; [6]): 2/5 | deaths versus administered animals (C57BL/6 male mouse; 500 mg/kg oral, antitumor agent alone, 14 days observation): 2/5 | deaths versus administered animals (C57BL/6 male mouse; [7]): 3/5 | deaths versus administered animals (C57BL/6 male mouse; 700 mg/kg oral, antitumor agent alone, 14 days observation): 3/5 | deaths versus administered animals (C57BL/6 male mouse; [8]): 4/5 | deaths versus administered animals (C57BL/6 male mouse; [9]): 5/5 | LD50 (C57BL/6 male mouse; mouse, in vivo, po): 524 mg/kg

C[C@H]1O[C@@H](n2cc(F)c(=O)[nH]c2=O)[C@H](O)[C@@H]1O [Doxifluridine]
LD50 (in vivo; po): 1200 mg/kg

CC(C)C(=O)Nc1ccc([N+](=O)[O-])c(C(F)(F)F)c1 [Flutamide]
LD50 (in vivo; po): 772 mg/kg

CCC1=C[C@@H]2CN(C1)Cc1c([nH]c3ccccc13)[C@@](C(=O)OC)(c1cc3c(cc1OC)N(C)[C@H]1[C@@](O)(C(=O)OC)[C@H](OC(C)=O)[C@]4(CC)C=CCN5CC[C@]31[C@@H]54)C2 [Vinorelbine]
LD50 (in vivo; ip): 29 mg/kg

COc1cc([C@@H]2c3cc4c(cc3[C@@H](O[C@@H]3O[C@@H]5CO[C@@H](C)O[C@H]5[C@H](O)[C@H]3O)[C@H]3COC(=O)[C@H]23)OCO4)cc(OC)c1O [Etoposide]
GI50 [4]: 5.11 µM | Regression rate of transplanted cancer (T/C %) at Day 14 (A549 lung cancer cells): 72% | Regression rate of transplanted cancer (T/C %) at Day 14 [1]: 93% | Regression rate of transplanted cancer (T/C %) at Day 14 [2]: 67% | Regression rate of transplanted cancer (T/C %) at Day 14 [3]: 76% | deaths versus administered animals (C57BL/6 male mouse; [10]): 0/6 | deaths versus administered animals (C57BL/6 male mouse; 20 mg/kg intravascular, 14 days observation): 1/6 | deaths versus administered animals (C57BL/6 male mouse; 30 mg/kg intravascular, 14 days observation): 2/6 | deaths versus administered animals (C57BL/6 male mouse; 40 mg/kg intravascular, 14 days observation): 5/7 | deaths versus administered animals (C57BL/6 male mouse; 50 mg/kg intravascular, 14 days observation): 5/6 | deaths versus administered animals (C57BL/6 male mouse; 60 mg/kg intravascular, 14 days observation): 6/6 | LD50 (in vivo): 32.7 mg/kg | LD50 (in vivo; po): 220 mg/kg

CC(=O)O[C@H]1C(=O)[C@@]2(C)[C@H]([C@H](OC(=O)c3ccccc3)[C@]3(O)C[C@H](OC(=O)[C@H](O)[C@@H](NC(=O)c4ccccc4)c4ccccc4)C(C)=C1C3(C)C)[C@]1(OC(C)=O)CO[C@@H]1C[C@@H]2O [Paclitaxel]
LD50 (in vivo): 12 mg/kg

O=c1[nH]c(=O)n(C2CCCO2)cc1F (centres unmarked) [Tegafur]
LD50 (in vivo; ip): 750 mg/kg

N.N.[Cl][Pt][Cl] [Cisplatin]
GI50 [4]: 7.21 µM | Regression rate of transplanted cancer (T/C %) at Day 14 (A549 lung cancer cells): 79% | Regression rate of transplanted cancer (T/C %) at Day 14 [1]: 67% | Regression rate of transplanted cancer (T/C %) at Day 14 [2]: 53% | Regression rate of transplanted cancer (T/C %) at Day 14 [3]: 67% | deaths versus administered animals (C57BL/6 male mouse; 5.0 mg/kg intravascular, 14 days observation): 1/8 | deaths versus administered animals (C57BL/6 male mouse; 7.5 mg/kg intravascular, 14 days observation): 2/7 | deaths versus administered animals (C57BL/6 male mouse; [10]): 5/8 | deaths versus administered animals (C57BL/6 male mouse; 12.5 mg/kg intravascular, 14 days observation): 6/8 | deaths versus administered animals (C57BL/6 male mouse; 15 mg/kg intravascular, 14 days observation): 5/6 | deaths versus administered animals (C57BL/6 male mouse; 17.5 mg/kg intravascular, 14 days observation): 6/6

N[C@@H](Cc1ccc(N(CCCl)CCCl)cc1)C(=O)O [Melphalan]
LD50 (in vivo): 21 mg/kg

CN(Cc1cnc2nc(N)nc(N)c2n1)c1ccc(C(=O)N[C@@H](CCC(=O)O)C(=O)O)cc1 [Methotrexate]
LD50 (in vivo; ip): 74 mg/kg

CS(=O)(=O)OCCCCOS(C)(=O)=O [Busulphan]
LD50 at 14 days (in vivo; po): 40 mg/kg

CC(C)C[C@H](NC(=O)[C@@H](COC(C)(C)C)NC(=O)[C@H](Cc1ccc(O)cc1)NC(=O)[C@H](CO)NC(=O)[C@H](Cc1c[nH]c2ccccc12)NC(=O)[C@H](Cc1cnc[nH]1)NC(=O)[C@@H]1CCC(=O)N1)C(=O)N[C@@H](CCCNC(=N)N)C(=O)N1CCC[C@H]1C(=O)NNC(N)=O [Goserelin acetate]
LD50 (in vivo; sc): 36 mg/kg

CC(C)COC(=O)OCN1C(=O)CN(CCN2CC(=O)N(COC(=O)OCC(C)C)C(=O)C2)CC1=O [Sobuzoxane]
deaths versus administered animals (C57BL/6 male mouse; 200 mg/kg oral, antitumor agent alone, 14 days observation): 0/5 | deaths versus administered animals (C57BL/6 male mouse; [6]): 1/5 | deaths versus administered animals (C57BL/6 male mouse; [7]): 1/6 | deaths versus administered animals (C57BL/6 male mouse; [8]): 2/5 | deaths versus administered animals (C57BL/6 male mouse; [9]): 3/5 | deaths versus administered animals (C57BL/6 male mouse; 1200 mg/kg oral, antitumor agent alone, 14 days observation): 4/5 | deaths versus administered animals (C57BL/6 male mouse; 1400 mg/kg oral, antitumor agent alone, 14 days observation): 6/6

S=P(N1CC1)(N1CC1)N1CC1 [Thiotepa]
LD50 (in vivo): 16.1 mg/kg

CN(C)CCOc1ccc(/C(=C(/CCCl)c2ccccc2)c2ccccc2)cc1 [Toremifene citrate]
LD50 (in vivo; po): 360 mg/kg

Bleomycin hydrochloride
deaths versus administered animals (C57BL/6 male mouse; 200 mg/kg intravascular, 14 days observation): 0/5 | deaths versus administered animals (C57BL/6 male mouse; 250 mg/kg intravascular, 14 days observation): 1/6 | deaths versus administered animals (C57BL/6 male mouse; 300 mg/kg intravascular, 14 days observation): 3/7 | deaths versus administered animals (C57BL/6 male mouse; 350 mg/kg intravascular, 14 days observation): 4/6 | deaths versus administered animals (C57BL/6 male mouse; 400 mg/kg intravascular, 14 days observation): 4/5 | deaths versus administered animals (C57BL/6 male mouse; 500 mg/kg intravascular, 14 days observation): 5/6 | deaths versus administered animals (C57BL/6 male mouse; 600 mg/kg intravascular, 14 days observation): 6/6 | LD50 (C57BL/6 male mouse; [5]): 322.7 mg/kg

CN(C)/N=N/c1[nH]cnc1C(N)=O [Dacarbazine]
LD50 (in vivo): 452 mg/kg

O=P1(NCCCl)OCCCN1CCCl (centres unmarked) [Ifosfamide]
LD50 (in vivo): 325 mg/kg | LD50 (in vivo; po): 996 mg/kg

CO[C@@]12[C@H](COC(N)=O)C3=C(C(=O)C(C)=C(N)C3=O)N1C[C@@H]1N[C@@H]12 [Mitomycin C]
GI50 [4]: 1.43 µM

NC(=O)NO [Hydroxycarbamide]
LD50 (in vivo; po): 2350 mg/kg

B1: Neocarzinostatin (protein, UniProt P0A3R9 35-147, looked up)
Neocarzinostatin: AAPTATVTPSSGLSDGTVVKVAGAGLQAGTAYDVGQCAWVDTGVLACNPADFSSVTADANGSASTSLTVRRSFEGFLFDGTRWGTVDCTTAACQVGLSDAAGNGPEGVAISFN
modifications: enediyne chromophore
LD50 (C57BL/6 male mouse; intraperitoneal, one-time administration, 14 days observation): 1050 mg/kg
